Test results published in US20120184765A1, “Process for preparing alkyl phosphates” (LANXESS DEUTSCHLAND GMBH, priority 2011, published 2012).

Assay: Solubility of tetraalkyl bisphosphates in water (separating funnel test)
Format: physicochemical
Settings: for water solubility (phase separation observed): 50.0 g tetraalkyl bisphosphate + 50.0 g fully demineralized water, shaken, left to stand 1 hour, residue of aqueous phase / weight of aqueous phase; for solubility / miscibility in water (in words): conclusion from the phase separation experiments; for phase separation in further experiments: different weight ratios of tetraalkyl bisphosphate and water
Protocol: A separating funnel was charged with 50.0 g of tetraalkyl bisphosphate and 50.0 g of fully demineralized water, and was shaken vigorously and then left to stand for 1 hour. If phase separation became apparent, the lower, aqueous phase was carefully separated off and weighed (mw). The aqueous phase was concentrated to constant weight under reduced pressure on a rotary evaporator, and the residue was likewise weighed (mR).

In the case of `CCOP(=O)(OCC)OCCOCCOP(=O)(OCC)OCC` [Tetraethyldiethylene glycol bisphosphate, tetraethyldiethylene glycol bisphosphate], the “water solubility (phase separation observed)” value is reported as “no phase separation”, the “solubility / miscibility in water (in words)” value is reported as “fully water-soluble” and the “phase separation in further experiments” value is reported as “no phase separation”.

For “tetramethyldiethylene glycol bisphosphate”, the “water solubility (phase separation observed)” value was “no phase separation”, the “solubility / miscibility in water (in words)” value was “fully water-soluble” and the “phase separation in further experiments” value was “no phase separation”.
